According to patent US20240402196A1 (Exact Sciences Corporation, priority 2018, published 2024):
“Also recorded” adds a separate entry of the source. Blank lines part the entries; values can stand above or below the compound they belong to.

Experiments:
[1] = molecular target: T1, hemoglobin in stool samples (Homo sapiens, UniProt P68871+P69905); assay: Accelerated shipping simulation (35C 16 hour challenge), hemoglobin % recovery by ELISA; set-up: To assess the stability of hemoglobin in stool samples, samples were exposed to simulated shipping stress conditions; from tissue; host or cells: stool samples;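 also: stool hemoglobin measured by ELISA before and after thermal-cycler shipping stress, stability given as percent of pre-stress hemoglobin recovered afterwards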
[2] = molecular target: T1, hemoglobin in stool samples; assay: 3-Day extreme temperature shipping simulation, hemoglobin % recovery by ELISA; set-up: from tissue; host or cells: stool samples
Experimental: (§1) To assess the stability of hemoglobin in stool samples, samples were exposed to simulated shipping stress conditions using a thermal cycler. […] An ELISA based detection method is used to determine the hemoglobin concentrations of samples before and after exposure to the shipping simulation. Hemoglobin stability is calculated as a % recovery of hemoglobin after the samples have been exposed to the shipping simulation.
As an additional challenge, a shipping simulation meant to represent a “worst case” scenario was created using extreme temperatures.

[3] = molecular target: T2, Hb (Homo sapiens, UniProt P68871+P69905); assay: Appendix B additive screen, % Hb Recovery
T2 construct: To assess the stability of hemoglobin in stool samples, samples were exposed to simulated shipping stress conditions; from tissue; host or cells: stool samples

[4] = molecular target: T1, hemoglobin in stool samples; assay: 7-Day shipping simulation, hemoglobin % recovery by ELISA; set-up: from tissue; host or cells: stool samples
Experimental: as §1
To assess the stability of hemoglobin in stool samples beyond 3 days, a 7-Day shipping simulation was created.

[5] = molecular target: T1, hemoglobin in stool samples; assay: Accelerated shipping simulation (35C 16 hour challenge), hemoglobin % recovery by ELISA; set-up: from tissue; host or cells: stool samples
[6] = molecular target: T1, hemoglobin in stool samples; assay: 3-Day shipping simulation, hemoglobin % recovery by ELISA; set-up: from tissue; host or cells: stool samples;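 also: stool samples put through shipping stress in a thermal cycler, hemoglobin quantified by ELISA before and after, stability given as post-stress % of the pre-stress level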
[7] = molecular target: T3, hemoglobin (Hb) (Homo sapiens, UniProt P68871+P69905); assay: Appendix B: additives in Hb Collection Buffer, % Hb Recovery
T3 construct: To assess the stability of hemoglobin in stool samples, samples were exposed to simulated shipping stress conditions; from tissue; host or cells: stool samples

[8] = molecular target: T1, hemoglobin in stool samples; assay: 7-Day modified shipping simulation, hemoglobin % recovery by ELISA; set-up: from tissue; host or cells: stool samples
[9] = molecular target: T4, hemoglobin (Homo sapiens, UniProt P68871+P69905); assay: Appendix B additive screen in Hb Collection Buffer, % Hb Recovery
T4 construct: To assess the stability of hemoglobin in stool samples, samples were exposed to simulated shipping stress conditions; from tissue; host or cells: stool samples

[10] = additive concentrations as in the 10th table
[11] = additive concentrations as in the 9th table
[12] = additive concentrations as in the 8th table
[13] = concentrations and buffer pH 6.5 or 7.4 as in the 15th table
[14] = concentrations and buffer pH 6.5 or 7.4 as in the 14th table
[15] = concentrations and buffer pH 6.5 or 7.4 as in the 13th table

T1 sequence (P69905 2-142 limits assumed): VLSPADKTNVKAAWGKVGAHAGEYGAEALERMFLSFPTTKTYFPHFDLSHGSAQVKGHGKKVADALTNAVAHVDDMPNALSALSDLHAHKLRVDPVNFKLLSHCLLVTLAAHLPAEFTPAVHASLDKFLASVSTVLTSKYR
T1 sequence (P68871 2-147 limits assumed): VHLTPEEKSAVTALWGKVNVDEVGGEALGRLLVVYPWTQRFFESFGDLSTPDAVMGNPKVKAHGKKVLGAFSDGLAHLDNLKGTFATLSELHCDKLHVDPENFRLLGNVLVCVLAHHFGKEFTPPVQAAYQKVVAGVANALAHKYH
T3 sequence (P69905 2-142 limits assumed): as the sequence (P69905 2-142 limits assumed) above
T3 sequence (P68871 2-147 limits assumed): as the sequence (P68871 2-147 limits assumed) above
T2 sequence (P69905 2-142 limits assumed): as the sequence (P69905 2-142 limits assumed) above
T2 sequence (P68871 2-147 limits assumed): as the sequence (P68871 2-147 limits assumed) above
T4 sequence (P69905 2-142 limits assumed): as the sequence (P69905 2-142 limits assumed) above
T4 sequence (P68871 2-147 limits assumed): as the sequence (P68871 2-147 limits assumed) above

- Results ([1]; additive concentration 0.377 mM): No Improvement
- Results ([1]; additive concentration 1 mM): No Improvement
SMILES: O=C(O)[C@@H](CO)O[C@@H]1O[C@H](CO)[C@@H](O)[C@H](O)[C@@H]1O

- Notes (Hb stability vs Hb Collection Buffer) [2, 10]: Improved Hb
- Results [3]: Betaine shows improvement
- Notes (Hb stability vs Hb Collection Buffer) [4, 11]: Improved Hb
- Results ([5]; additive concentration 50 uM): No Improvement
- Results ([5]; additive concentration 500 uM): No Improvement
- Results ([5]; additive concentration 50 mM): No Improvement
- Results ([5]; additive concentration 96 mM): No Improvement
- Results ([5]; additive concentration 3.5M): Improvement
- Results ([6]; Additive Concentration 1M): Betaine shows improvement
- Results ([6]; additive concentration 0.05M): Betaine shows improvement
- Results ([6]; additive concentration 0.5M): Betaine shows improvement
- Results ([6]; additive concentration 1.25M): Betaine shows improvement
- Results ([6]; additive concentration 3M): Betaine shows improvement
- Results ([6]; additive concentration 3.5M): Betaine shows improvement
- Results ([6]; additive concentration 3.75M): Betaine shows improvement
- Results ([6]; additive concentration 4M): Betaine shows improvement
- Results ([6]; additive concentration 5M): Betaine shows improvement
- Results ([6]; additive concentration […]): Betaine shows improvement
- Notes (Hb stability vs Hb Collection Buffer) [6, 12]: Improved Hb
SMILES: C[N+](C)(C)CC(=O)O [Betaine]

SMILES: [Ca+2].[Cl-].[Cl-] [Calcium Chloride]
- Results ([7]; Additive Concentration 10 mM): No improvement; also recorded: Improvement in % Hb
- Notes (Hb stability vs Hb Collection Buffer) [2, 10]: Improved Hb
- Results [3]: Calcium cation shows
- Notes (Hb stability vs Hb Collection Buffer) [4, 11]: Improved Hb
- Results [5]: Calcium cation shows; also recorded: Improvement
- Results ([6]; Additive Concentration 10 mM): Calcium cation shows
- Results ([6]; additive concentration 5 mM): Calcium cation shows
- Results ([6]; additive concentration 10 mM): Calcium cation shows
- Results ([6]; additive concentration 20 mM): Calcium cation shows
- Results ([6]; additive concentration 30 mM): Calcium cation shows
- Results ([6]; additive concentration 40 mM): Calcium cation shows
- Results ([6]; additive concentration 50 mM): Calcium cation shows
- Notes (Hb stability vs Hb Collection Buffer) [6, 12]: Improved Hb

- Notes (Hb stability vs Hb Collection Buffer) [2, 13]: Improved
- Notes (Hb stability vs Hb Collection Buffer) [4, 14]: Improved
- Results ([5]; additive concentration 0.0003%, pH 6.5): Improvement
- Results ([5]; additive concentration 0.0003%; pH 6.4): Improvement in % Hb
- Results ([5]; additive concentration 0.0003%; pH 6.5): Improvement in % Hb
- Results ([5]; additive concentration 0.0003%; pH 6.6): Improvement in % Hb
- Results ([5]; additive concentration 0.0003%; pH 6.7): Improvement in % Hb
- Results ([5]; additive concentration 0.0003%; pH 6.8): Improvement in % Hb
- Results ([5]; additive concentration 0.0003%; pH 6.9): Improvement in % Hb
- Results ([5]; additive concentration 0.0003%; pH 7.0): Improvement in % Hb
- Results ([5]; additive concentration 0.0003%; pH 7.1): Improvement in % Hb
- Results ([5]; additive concentration 0.0003%; pH 7.2): Improvement in % Hb
- Results ([5]; additive concentration 0.0003%; pH 7.3): Improvement in % Hb
- Results ([5]; additive concentration 0.0003%; pH 7.4): Improvement in % Hb
- Results ([5]; additive concentration 0.0003%; pH 7.5): Improvement in % Hb
- Notes (Hb stability vs Hb Collection Buffer) [6, 15]: Improved
SMILES: C=CC1=C(C)c2cc3[n-]c(cc4[n-]c(cc5nc(cc1n2)C(C)=C5C=C)c(C)c4CCC(=O)O)c(CCC(=O)O)c3C.[Cl-].[Fe+3] [Hemin]

SMILES: O=S(=O)([O-])[O-].[Mg+2] [Magnesium Sulfate]
- Results ([7]; Additive Concentration 10 mM): Improvement in % Hb
- Notes (Hb stability vs Hb Collection Buffer) [2, 10]: Improved Hb
- Notes (Hb stability vs Hb Collection Buffer) [4, 11]: Improved Hb
- Results ([5]; additive concentration 10 mM): Improvement
- Results ([6]; Additive Concentration 10 mM): Magnesium Cation shows
- Results ([6]; additive concentration 0.001M): Magnesium Cation shows
- Results ([6]; additive concentration 5 mM): Magnesium Cation shows
- Results ([6]; additive concentration 0.01M): Magnesium Cation shows
- Results ([6]; additive concentration 10 mM): Magnesium Cation shows
- Results ([6]; additive concentration 20 mM): Magnesium Cation shows
- Results ([6]; additive concentration 30 mM): Magnesium Cation shows
- Results ([6]; additive concentration 40 mM): Magnesium Cation shows
- Results ([6]; additive concentration 0.05M): Magnesium Cation shows
- Results ([6]; additive concentration 50 mM): Magnesium Cation shows
- Notes (Hb stability vs Hb Collection Buffer) [6, 12]: Improved Hb

- Results ([7]; Additive Concentration 0.1 uM): No Improvement
- Results ([7]; additive concentration 5 uM): Improvement in % Hb
- Results ([7]; additive concentration 10 uM): Improvement in % Hb
- Notes (Hb stability vs Hb Collection Buffer) ([8]; 3-6 μM, buffer pH 6.4-7.0 as in the 17th table): Improved Hb
- Hb stability (in words) ([8]; concentrations of 3-6 μM, adjusted pH range of 6.4-7.0): increased Hb stability
- Notes (Hb stability vs Hb Collection Buffer) [2, 13]: Improved
- Notes (Hb stability vs Hb Collection Buffer) [4, 14]: Improved
- Notes (Hb stability vs Hb Collection Buffer) ([5]; 35C 16 hour challenge; concentrations and pH as in the 19th table): Improved Hb
- Hb stability (in words) ([5]; 35C 16 hour challenge; concentrations of 2.5-10 μM; adjusted pH range of 6.2-7.4): increased Hb stability
- Results ([5]; additive concentration 5 uM): Improvement in % Hb
- Results ([5]; additive concentration 5 uM, pH 6.5): Improvement
- Results ([5]; additive concentration 5 uM, pH 7.4): Improvement
- Notes (Hb stability vs Hb Collection Buffer) ([6]; 3-Day and 7-Day Shipping Simulation, concentrations and pH as in the 18th table): Improved Hb
- Hb stability (in words) ([6]; 3 and 7 day Shipping Simulations, concentrations of 2.5-10 µM, adjusted pH of 6.8): increased Hb stability
- Notes (Hb stability vs Hb Collection Buffer) [6, 15]: Improved
SMILES: C=Cc1c(C)c2cc3[nH]c(cc4nc(cc5nc(cc1[nH]2)C(C)=C5CCC(=O)[O-])C(CCC(=O)[O-])=C4C)c(C)c3C=C.[Co+2] [Protoporphyrin IX Co, Protoporphyrin IX Cobalt]
- Hb stability compared to the Polymedco buffer (in words) ([2]; additive in Hb Collection Buffer): improved Hb stability compared to the Polymedco buffer

- Results ([7]; Additive Concentration 0.001 uM): No Improvement
- Results ([7]; Additive Concentration 0.01 uM): Improvement in % Hb
- Results ([7]; Additive Concentration 0.1 uM): Improvement in % Hb
- Results ([7]; Additive Concentration 1 uM): Improvement in % Hb
- Results ([7]; additive concentration 10 uM): Improvement in % Hb
- Results ([7]; additive concentration 100 uM): Improvement in % Hb
- Notes (Hb stability vs Hb Collection Buffer) [2, 13]: Improved
- Notes (Hb stability vs Hb Collection Buffer) [4, 14]: Improved
- Results ([5]; additive concentration 1 uM, pH 6.5): Improvement
- Results ([5]; additive concentration 1 uM, pH 7.4): Improvement
- Notes (Hb stability vs Hb Collection Buffer) [6, 15]: Improved
SMILES: C=CC1=C(C)c2cc3[n-]c(cc4nc(cc5[n-]c(cc1n2)c(C)c5C=C)C(C)=C4CCC(=O)O)c(CCC(=O)O)c3C.[Zn+2] [Protoporphyrin IX Zn, Protoporphyrin IX Zinc]

SMILES: O=NO [Sodium Nitrite]
- Results [9]: No Improvement

SMILES: O=C(O)c1cccnc1 [Vitamin B3]
- Results [9]: No Improvement
